In general, IC50 refers to the midpoint of a concentration-inhibition curve. A high value points to lower potency. What is called melting point is the temperature, or range, at which the solid turns liquid.

Molecules are shown by their SMILES.

For 24 molecules, IC50 and melting point results are on record in patent US6972288B1, “4-amino-quinazoline and quinoline derivatives having an inhibitory effect on signal transduction mediated by tyrosine kinases” (Boehringer Ingelheim Pharma KG, priority 1999, dated 2005).

For one data set, the target named is T1, human EGF-R (Homo sapiens, UniProt P00533).
T1 construct: expressed in transfected cells; host or cells: F/L-HERc cells, derived from the murine IL-3-dependent line FDC-P1 ('FDC-PI' [sic]); retroviral vector LXSN, packaging line GP+E86
T1 sequence (P00533 25-1210): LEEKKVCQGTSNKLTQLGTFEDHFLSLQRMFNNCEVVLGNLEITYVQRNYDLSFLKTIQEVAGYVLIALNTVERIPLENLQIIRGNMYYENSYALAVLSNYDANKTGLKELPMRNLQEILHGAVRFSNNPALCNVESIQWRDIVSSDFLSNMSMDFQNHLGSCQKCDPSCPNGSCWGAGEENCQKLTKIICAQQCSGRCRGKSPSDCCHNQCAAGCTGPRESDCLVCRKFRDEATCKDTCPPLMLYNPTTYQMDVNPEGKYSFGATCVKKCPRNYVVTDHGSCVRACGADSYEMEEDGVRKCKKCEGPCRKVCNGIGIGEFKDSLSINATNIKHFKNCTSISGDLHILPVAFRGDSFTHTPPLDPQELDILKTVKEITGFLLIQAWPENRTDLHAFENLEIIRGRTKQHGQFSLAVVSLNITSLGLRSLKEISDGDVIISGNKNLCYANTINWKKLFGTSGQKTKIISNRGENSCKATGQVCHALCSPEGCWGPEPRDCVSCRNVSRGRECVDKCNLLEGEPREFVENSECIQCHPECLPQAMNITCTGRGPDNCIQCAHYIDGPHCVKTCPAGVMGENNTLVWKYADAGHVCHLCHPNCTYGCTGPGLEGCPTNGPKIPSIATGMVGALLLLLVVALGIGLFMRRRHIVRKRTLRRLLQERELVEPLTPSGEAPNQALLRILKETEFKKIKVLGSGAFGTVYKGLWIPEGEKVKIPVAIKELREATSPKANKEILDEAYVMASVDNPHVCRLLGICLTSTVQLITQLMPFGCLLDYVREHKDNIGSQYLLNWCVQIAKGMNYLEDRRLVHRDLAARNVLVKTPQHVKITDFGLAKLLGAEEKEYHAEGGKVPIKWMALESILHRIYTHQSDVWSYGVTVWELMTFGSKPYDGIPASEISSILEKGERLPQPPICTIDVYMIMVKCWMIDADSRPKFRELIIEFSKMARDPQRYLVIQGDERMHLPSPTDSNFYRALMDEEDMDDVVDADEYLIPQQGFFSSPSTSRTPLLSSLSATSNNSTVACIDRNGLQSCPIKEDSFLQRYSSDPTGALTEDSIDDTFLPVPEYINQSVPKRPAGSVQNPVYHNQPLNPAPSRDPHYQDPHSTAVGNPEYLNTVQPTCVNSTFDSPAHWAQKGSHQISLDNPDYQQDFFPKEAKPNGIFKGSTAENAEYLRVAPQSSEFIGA
Kind of data set: Inhibition of EGF-dependent proliferation of F/L-HERc cells (Cell Titer 96 AQueous assay). In kind it is cell-based. The note with it: F/L-HERc cells (murine IL-3-dependent line expressing human EGF-R), stimulated with EGF 20 ng/ml, 48 hours at 37° C. The source says: A cell line of murine origin dependent on interleukin-3 (IL-3) which was genetically modified to express functional human EGF-R was used here. The proliferation of these cells known as F/L-HERc can therefore be stimulated either by murine IL-3 or by EGF (cf. von Rüden, T. et al. in EMBO J. 7, 2749-2756 (1988) and Pierce, J. H. et al. in Science 239. 628-631 (1988)).
The starting material used for the F/L-HERc cells was the cell line FDC-PI, the production of which has been described by Dexter, T. M. et al, in J. Exp. Med. 152, 1036-1047 (1980). alternatively, however, other growth-factor-dependent cells may also be used (cf. for example Pierce, J. H. et al. in Science 239, 628-631 (1988), Shibuya, H. et al. in Cell 70, 57-67 (1992) and alexander, W. S. et al. in EMBO J. 10, 3683-3691 (1991)). For expressing the human EGF-R cDNA (cf. Ullrich, A. et al. in Nature 309, 418-425 (1984)) recombinant retroviruses were used as described by von Rüden, T. et al., EMBO J. 7, 2749-2756 (1988), except that the retroviral vector LXSN (cf. Miller, A. D. et al. in BioTechniques 1, 980-990 (1989)) was used for the expression of the EGF-R cDNA and the line GP+E86 (cf, Markowitz, D, et al. in J. Virol. 62, 1120-1124 (1988)) was used as the packaging cell.
The test was performed as follows: • F/L-HERC cells were cultivated in RPMI/1640 medium (BioWhittaker), supplemented with 10% foetal calf serum (FCS, Boehringer Mannheim). 2 mM glutamine (BioWhittaker), standard antibiotics and 20 ng/ml of human EGF (Promega), at 37° C. and 5% CO2. In order to investigate the inhibitory activity of the compounds according to the invention, 1.5×10^4 cells per well were cultivated in triplicate in 96-well plates in the above medium ([…]), the cell proliferation being stimulated with either EGF (20 ng/ml) or murine IL-3. The IL-3 used was obtained from culture supernatants of the cell line X63/0 mIL-3 (cf. Karasuyama, 4. et al. in Eur. J. Immunol. 18, 97-104 (19881). The compounds according to the invention were dissolved in 100% dimethylsulphoxide (DMSO) and added to the cultures in various dilutions, the maximum DMSO concentration being 1%. The cultures were incubated for 48 hours at 37° C.
In order to determine the inhibitory activity of the compounds according to the invention the relative cell number was measured in O.D. units using the Cell Titer 96™ AQueous Non-Radioactive Cell Proliferation Assay (Promega). The relative cell number was calculated as a percentage of the control (F/LHERc cells without inhibitor) and the concentration of active substance which inhibits the proliferation of the cells by 50% (IC50) was derived therefrom.
For `CCOC(=O)CN(C)CC=CC(=O)Nc1cc2c(N[C@H](C)c3ccccc3)ncnc2cc1OC` [5(2), (R)-4-[(1-phenylethyl)amino]-6-[(4-(N-[(ethoxycarbonyl)methyl]-N-methylamino}-1-oxo-2-buten-1-yl)amino]-7-methoxy-quinazoline], 9 nM corresponded to half-maximal inhibition (IC50). This lies in the single-digit nanomolar range. `CCOC(=O)CN1CCN(CC=CC(=O)Nc2cc3c(Nc4ccc(F)c(Cl)c4)ncnc3cc2OC2CCC2)CC1` [5(29), 4-[(3-chloro-4-fluorophenyl)amino]-6-[(4-{4-[(ethoxycarbonyl)methyl]-piperazin-1-yl)-1-oxo-2-buten-1-yl}amino]-7-cyclobutyloxy-quinazoline]: it took 1.9 nM to reach half-maximal inhibition (IC50). In the case of `O=C(C=CCN1CCOC(=O)C1)Nc1cc2c(Nc3ccc(F)c(Cl)c3)ncnc2cc1OCC1CC1` [5(25), 4-[(3-chloro-4-fluorophenyl)amino]-6-{[4-(2-oxo-morpholin-4-yl)-1-oxo-2-buten-1-yl]amino}-7-cyclopropylmethoxy-quinazoline], the IC50 is 74 nM. On the same count and under the same terms, in the case of `CCOC(=O)CN1CCN(CC=CC(=O)Nc2cc3c(Nc4ccc(F)c(Cl)c4)ncnc3cc2OCC2CC2)CC1` [5(18)] it was 7.4 nM; in that of `C=CC(=O)Nc1cc2c(Nc3cccc(Br)c3)ncnc2cc1OCCCN1CCN(CCCC(=O)OCC)CC1` [1(4), 4-[(3-bromophenyl)amino]-7-(3-{4-[3-(ethoxycarbonyl)propyl]-piperazin-1-yl}propyloxy)-6-[(vinylcarbonyl)amino]-quinazoline], 15 nM.

Take `CCOC1CN(CC=CC(=O)Nc2cc3c(Nc4cccc(Br)c4)ncnc3cc2OC)CCO1` (stereo not drawn) [5(10), 4-[(3-bromophenyl)amino]-6-([4-(2-ethoxy-morpholin-4-yl)-1-oxo-2-buten-1-yl]amino)-7-methoxy-quinazoline]: it took 1.8 nM to reach half-maximal inhibition (IC50). On the same count and under the same terms, in the case of `CCOC(=O)CN(C)CC=CC(=O)Nc1ccc2ncc(C#N)c(Nc3cccc(Br)c3)c2c1` [5(12), 4-[(3-bromophenyl)amino]-3-cyano-6-[(4-{N-[(ethoxycarbonyl)methyl]-N-methylamino}-1-oxo-2-buten-1-yl)amino]-quinoline] it was 18 nM; in that of `CCOC(=O)CN(CC=CC(=O)Nc1cc2c(Nc3ccc(F)c(Cl)c3)ncnc2cc1OCC1CC1)CCSC(C)=O` [8(1), 4-[(3-chloro-4-fluorophenyl)amino]-6-[(4-(N-[(ethoxycarbonyl)methyl]-N-[2-(acetylsulphanyl)ethyl]amino)-1-oxo-2-buten-1-yl)amino]-7-cyclopropylmethoxy-quinazoline], 109 nM; in that of `COc1cc2ncnc(Nc3cccc(Br)c3)c2cc1NC(=O)C=CCN(C)CC(OC)OC` [5(8), 4-[(3-bromophenyl)amino]-6-({4-[N-(2,2-dimethoxyethyl)-N-methylamino]-1-oxo-2-buten-1-yl}amino)-7-methoxy-quinazoline], 1.8 nM. Same read-out and setting: in the case of `C=CC(=O)Nc1cc2c(Nc3cccc(Br)c3)ncnc2cc1OCCCN(C)CC(=O)OCC` [1(13), 4-[(3-bromophenyl)amino]-7-(3-{N-[(ethoxycarbonyl)methyl]-N-methylamino)propyloxy)-6-[(vinylcarbonyl)amino]-quinazoline] it was 8.7 nM. On the same count and under the same terms, to `CCOP(=O)(CN(C)CC=CC(=O)Nc1cc2c(Nc3cccc(Br)c3)ncnc2cc1OC)OCC` [2(4), 4-[(3-bromophenyl)amino]-6-[(4-{N-[(diethoxyphosphoryl)methyl]-N-methylamino}-1-oxo-2-buten-1-yl)amino]-7-methoxy-quinazoline] belongs 6.7 nM. `CCOC(=O)CCN(CC=CC(=O)Nc1cc2c(Nc3ccc(F)c(Cl)c3)ncnc2cc1OCC1CC1)CC(=O)OCC` [5(22)] yielded an IC50 of 58 nM.

`C=CC(=O)Nc1cc2c(Nc3cccc(Br)c3)ncnc2cc1OCCCN1CCN(CP(=O)(OCC)OCC)CC1` [1(10), 4-[(3-bromophenyl)amino]-7-(3-{4-[(diethoxyphosphoryl)-methyl]-piperazin-1-yl}propyloxy)-6-[(vinylcarbonyl)amino]-quinazoline] displayed an IC50 of 21 nM. Molecule `COC(=O)[C@@H]1CCCN1CC=CC(=O)Nc1cc2c(Nc3ccc(F)c(Cl)c3)ncnc2cc1OCC1CC1` [5(36)] registered an IC50 of 3 nM. On the same count and under the same terms, in the case of `C=CC(=O)Nc1cc2c(Nc3cccc(Br)c3)ncnc2cc1OC1CCN(CC(=O)OCC)CC1` [1(6), 4-[(3-bromophenyl)amino]-7-((1-[(ethoxycarbonyl)methyl]-piperidin-4-yl)oxy)-6-[(vinylcarbonyl)amino]-quinazoline] it was 15 nM.

Test system in another data set: not given
Assay: not given
Settings: not given
As to `CC1(C)CN(CC=CC(=O)Nc2cc3c(Nc4ccc(F)c(Cl)c4)ncnc3cc2OCC2CC2)CC(=O)O1` [Example 10, 4-[(3-chloro-4-fluorophenyl)amino]-6-{[4-(2,2-dimethyl-6-oxo-morpholin-4-yl)-1-oxo-2-buten-1-yl]amino}-7-cyclopropylmethoxy-quinazoline], the melting point lay in the range of 140 to 142 °C. The same measure, in the same setting: in the case of `CCOC(=O)CN1CCN(C(C)(C)C=CC(=O)Nc2cc3c(Nc4ccc(F)c(Cl)c4)ncnc3cc2OCC2CC2)CC1` [Example 17, 4-[(3-Chloro-4-fluoro-phenyl)amino]-6-[(4,4-dimethyl-4-{4-[(ethoxycarbonyl)methyl]-piperazin-1-yl)-1-oxo-2-buten-1-yl)amino]-7-cyclopropylmethoxy-quinazoline] it was 165 to 167 °C; in that of `CCOC(=O)CCN1CCN(CC=CC(=O)Nc2cc3c(Nc4ccc(F)c(Cl)c4)ncnc3cc2OCC2CC2)CC1` [Example 16, 4-[(3-Chloro-4-fluoro-phenyl)amino]-6-[(4-{4-[2-(ethoxycarbonyl)-ethyl]-piperazin-1-yl}-1-oxo-2-buten-1-yl)amino]-7-cyclopropylmethoxy-quinazoline], 183 to 185 °C; in that of `CCOC(=O)CN(C)CC=CC(=O)Nc1cc2c(Nc3cccc(C)c3)ncnc2cc1OC` [Example 5, 4-[(3-methylphenyl)amino]-6-[(4-{N-[(ethoxycarbonyl)methyl]-N-methylamino}-1-oxo-2-buten-1-yl)amino]-7-methoxy-quinazoline], 110 to 114 °C. On the same count and under the same terms, to `O=C(C=CCN1CCN(CC(=O)OCc2ccccc2)CC1)Nc1cc2c(Nc3ccc(F)c(Cl)c3)ncnc2cc1OCC1CC1` [Example 12, 4-[(3-Chloro-4-fluoro-phenyl)amino]-6-[(4-{4-[(benzyloxycarbonyl)methyl]-piperazin-1-yl)-1-oxo-2-buten-1-yl}amino]-7-cyclopropylmethoxy-quinazoline] belongs 174 °C; to `CCOC(=O)C1CN(S(C)(=O)=O)CCN1CC=CC(=O)Nc1cc2c(Nc3ccc(F)c(Cl)c3)ncnc2cc1OCC1CC1` (stereo not drawn) [Example 15, 4-[(3-Chloro-4-fluoro-phenyl)amino]-6-({4-[2-(ethoxycarbonyl)-4-(methylsulfonyl)-piperazin-1-yl]-1-oxo-2-buten-1-yl)amino)-7-cyclopropylmethoxy-quinazoline], 170 to 173 °C. On the same count and under the same terms, in the case of `CCOC(=O)C1CN(C(C)=O)CCN1CC=CC(=O)Nc1cc2c(Nc3ccc(F)c(Cl)c3)ncnc2cc1OCC1CC1` (stereo not drawn) [Example 18, 4-[(3-Chloro-4-fluoro-phenyl)amino]-6-({4-[2-(ethoxycarbonyl)-4-(methylcarbonyl)-piperazin-1-yl]-1-oxo-2-buten-1-yl}amino)-7-cyclopropylmethoxy-quinazoline] it was 152 to 156 °C; in that of `C=CC(=O)Nc1cc2c(Nc3cccc(Br)c3)ncnc2cc1OCCCN1CCN(CC(=O)O)CC1` [Example 6, 4-[(3-Bromophenyl)amino]-7-{3-[4-(carboxymethyl)-piperazin-1-yl]propyloxy}-6-[(vinylcarbonyl)amino]-quinazoline], 140 °C (dec.); in that of `CCOC1CN(CC=CC(=O)Nc2cc3c(Nc4cccc(Br)c4)ncnc3cc2OC)CC(OCC)O1` (stereo not drawn) [Example 7, 4-[(3-bromophenyl)amino]-6-{[4-(2,6-diethoxy-morpholin-4-yl)-1-oxo-2-buten-1-yl]amino}-7-methoxy-quinazoline], 133 to 138 °C.
